{"source": "patent US4285964A", "about": "“Salts of (+)-catechine, their preparation and use, and compositions containing these salts” (Continental Pharma, priority 1979, dated 1981)", "key": {"[1]": {"details": "volume of water per 1 g of (+)-catechin; cited from earlier work"}, "[2]": {"assay": "solubility of double salts in the presence of 2% of benzyl alcohol", "format": "physicochemical", "details": "salts formed with L-lysine and an acid", "method": "These double salts of (+)-catechin are all hydrosoluble but the solubility varies somewhat as a function of the acid used.\nUpon cooling, salts precipitate and 1 to 3% of benzyl alcohol are added, advantageously 2%. The solution is reheated to about 45° C. and allowed to cool again, preferably to below 10° C. The double salt then remains in solution."}, "[3]": {"assay": "pH of solutions of the salts", "format": "physicochemical"}}, "note": "Structures can show the parent of a compound that is named as a salt. Where two headings read alike, the source gives them in different places.", "data": [{"smiles": "Oc1cc(O)c2c(c1)O[C@H](c1ccc(O)c(O)c1)[C@@H](O)C2", "note": "[(+)-catechin, trans-2-(3,4-dihydroxyphenyl)-3,4-dihydro-2H-1-benzopyran-3,5,7-triol]", "values": [{"measurement": "solubility of (+)-catechin in water", "setting": "[1]", "result": "1100-1200 ml of water"}]}, {"smiles": "Oc1cc(O)c2c(c1)O[C@H](c1ccc(O)c(O)c1)[C@@H](O)C2", "note": "[Example 2]", "values": [{"measurement": "solubility", "setting": "[2]; listed as salt formed with L-lysine and hydrochloric acid", "result": "above 15 mg of (+)-catechin per ml"}]}, {"smiles": "Oc1cc(O)c2c(c1)O[C@H](c1ccc(O)c(O)c1)[C@@H](O)C2", "note": "[Example 6]", "values": [{"measurement": "solubility", "setting": "[2]; water, 2% benzyl alcohol, organic solvent or mixture, read-out: solubility", "result": "> 15", "unit": "mg/mL"}, {"measurement": "pH of an aqueous concentrated solution", "setting": "[3]", "result": 6.5}]}, {"smiles": "Oc1cc(O)c2c(c1)O[C@H](c1ccc(O)c(O)c1)[C@@H](O)C2", "note": "[salt formed with L-lysine and acetic acid]", "values": [{"measurement": "solubility", "setting": "[2]", "result": "above 15 mg of (+)-catechin per ml"}]}, {"smiles": "Oc1cc(O)c2c(c1)O[C@H](c1ccc(O)c(O)c1)[C@@H](O)C2", "note": "[salt formed with L-lysine and citric acid]", "values": [{"measurement": "solubility", "setting": "[2]", "result": "9.5 mg of (+)-catechin per ml"}]}, {"smiles": "Oc1cc(O)c2c(c1)O[C@H](c1ccc(O)c(O)c1)[C@@H](O)C2", "note": "[salt formed with L-lysine and glucuronic acid]", "values": [{"measurement": "solubility", "setting": "[2]", "result": "above 15 mg of (+)-catechin per ml"}]}]}
